A short description of this assay: During breakage test combing (weight of broken hairs after 20 combings). The note with it: bleached strands, treated at 15%, combed 20 times, vs bleached untreated reference. The text has this: All samples (hair strands) have been combed for 20 times and broken hairs have been weighted (with 0.0001 g accuracy, METTLER TOLEDO EXCELLENCE analytical scale).

Consider `NCCCOCCOCCOCCCN.O=C(O)C=CC(=O)O.O=C(O)C=CC(=O)O` [bis-aminopropyl diglycol dimaleate], for which the “reduction in broken hairs” value is reported as 50.00%.

The values are drawn from US20220331217A1, “Hair restructuring association comprising a quaternary ammonium salt and a sulpho-derivative of vegetable fatty acids” (Greengredients S.r.l., priority 2021, published 2022).
